For 12 compounds, Activity results are on record in ChEMBL document CHEMBL5442741, “ASAP - In vitro kinase profile” (2024).

Several values for one entry are separate records, joined by “and”; a condition that tells them apart may be missing. Equal entries are not always repeated.

For assay [1], the target named is Ribosomal protein S6 kinase alpha-4 (Homo sapiens) (UniProt O75676). The assay is described as follows: Enzymatic radiometric [Km ATP] KinaseProfiler LeadHunter assay, kinase: MSK2, catalogue number: 14-616KP The assay has been performed by Eurofins Discovery. Particulars: ATP concentration 45.0 uM, Test compound concentration 10.0 uM.
Assay [2] deals with Protein kinase C theta type (Homo sapiens) (UniProt Q04759). The assay is described as follows: Enzymatic radiometric [Km ATP] KinaseProfiler LeadHunter assay, kinase: PKC-theta, catalogue number: 14-444KP The assay has been performed by Eurofins Discovery. The note with it: ATP concentration 15.0 uM, Test compound concentration 10.0 uM.
Assay [3] addresses Glycogen synthase kinase-3 beta (Homo sapiens) (UniProt P49841). The assay is described as follows: Enzymatic radiometric [Km ATP] KinaseProfiler LeadHunter assay, kinase: GSK3-beta, catalogue number: 14-306KP The assay has been performed by Eurofins Discovery. The note with it: ATP concentration 15.0 uM, Test compound concentration 10.0 uM.
Assay [4] deals with Casein kinase II subunit alpha' (Homo sapiens) (UniProt P19784). The assay is described as follows: Enzymatic radiometric [Km ATP] KinaseProfiler LeadHunter assay, kinase: CK2-alpha2, catalogue number: 14-689KP The assay has been performed by Eurofins Discovery. The note with it: ATP concentration 10.0 uM, Test compound concentration 10.0 uM.
In assay [5] the target is T1, Eukaryotic elongation factor 2 kinase (Homo sapiens) (UniProt O00418).
T1 sequence (whole entry): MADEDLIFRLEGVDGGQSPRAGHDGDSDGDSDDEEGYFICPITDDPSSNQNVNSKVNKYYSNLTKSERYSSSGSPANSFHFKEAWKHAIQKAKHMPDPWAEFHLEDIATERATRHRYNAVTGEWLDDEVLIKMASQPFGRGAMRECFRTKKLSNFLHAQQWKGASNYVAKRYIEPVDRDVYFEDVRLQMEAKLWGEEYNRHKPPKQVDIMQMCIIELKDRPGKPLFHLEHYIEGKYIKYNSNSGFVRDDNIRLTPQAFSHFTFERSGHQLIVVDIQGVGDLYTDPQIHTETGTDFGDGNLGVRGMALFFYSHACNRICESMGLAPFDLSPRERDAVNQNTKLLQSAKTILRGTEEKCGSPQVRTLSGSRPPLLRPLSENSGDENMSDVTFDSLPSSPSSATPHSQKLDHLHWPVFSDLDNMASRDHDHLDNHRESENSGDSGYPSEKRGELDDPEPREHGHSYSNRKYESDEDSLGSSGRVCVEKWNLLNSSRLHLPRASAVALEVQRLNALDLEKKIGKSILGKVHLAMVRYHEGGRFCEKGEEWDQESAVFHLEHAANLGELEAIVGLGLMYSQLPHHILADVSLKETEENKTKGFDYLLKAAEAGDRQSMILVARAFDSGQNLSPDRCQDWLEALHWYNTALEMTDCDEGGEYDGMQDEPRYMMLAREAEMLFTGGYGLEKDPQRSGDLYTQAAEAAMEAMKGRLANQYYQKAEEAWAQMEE
The assay is described as follows: Enzymatic radiometric [Km ATP] KinaseProfiler LeadHunter assay, kinase: eEF-2K, catalogue number: 14-654KP The assay has been performed by Eurofins Discovery. Particulars: ATP concentration 15.0 uM, Test compound concentration 10.0 uM.

The target in assay [6] is MAP kinase-activated protein kinase 2 (Homo sapiens) (UniProt P49137). As to the kind of experiment: Enzymatic radiometric [Km ATP] KinaseProfiler LeadHunter assay, kinase: MAPKAP-K2, catalogue number: 14-337KP The assay has been performed by Eurofins Discovery. The note with it: ATP concentration 90.0 uM, Test compound concentration 10.0 uM.
For assay [7], the target named is PI3K p110 beta/p85 alpha (Homo sapiens) (UniProt P27986+P42338). As to the kind of experiment: Enzymatic radiometric [Km ATP] KinaseProfiler LeadHunter assay, kinase: PI3 Kinase (p110-beta/p85-alpha), catalogue number: 14-603KP The assay has been performed by Eurofins Discovery. Type of assay: protein-complex assay. Particulars: ATP concentration 200.0 uM, Test compound concentration 10.0 uM.

Assay [8] addresses T2, Tyrosine-protein kinase receptor TYRO3 (Homo sapiens) (UniProt Q06418).
T2 sequence (whole entry): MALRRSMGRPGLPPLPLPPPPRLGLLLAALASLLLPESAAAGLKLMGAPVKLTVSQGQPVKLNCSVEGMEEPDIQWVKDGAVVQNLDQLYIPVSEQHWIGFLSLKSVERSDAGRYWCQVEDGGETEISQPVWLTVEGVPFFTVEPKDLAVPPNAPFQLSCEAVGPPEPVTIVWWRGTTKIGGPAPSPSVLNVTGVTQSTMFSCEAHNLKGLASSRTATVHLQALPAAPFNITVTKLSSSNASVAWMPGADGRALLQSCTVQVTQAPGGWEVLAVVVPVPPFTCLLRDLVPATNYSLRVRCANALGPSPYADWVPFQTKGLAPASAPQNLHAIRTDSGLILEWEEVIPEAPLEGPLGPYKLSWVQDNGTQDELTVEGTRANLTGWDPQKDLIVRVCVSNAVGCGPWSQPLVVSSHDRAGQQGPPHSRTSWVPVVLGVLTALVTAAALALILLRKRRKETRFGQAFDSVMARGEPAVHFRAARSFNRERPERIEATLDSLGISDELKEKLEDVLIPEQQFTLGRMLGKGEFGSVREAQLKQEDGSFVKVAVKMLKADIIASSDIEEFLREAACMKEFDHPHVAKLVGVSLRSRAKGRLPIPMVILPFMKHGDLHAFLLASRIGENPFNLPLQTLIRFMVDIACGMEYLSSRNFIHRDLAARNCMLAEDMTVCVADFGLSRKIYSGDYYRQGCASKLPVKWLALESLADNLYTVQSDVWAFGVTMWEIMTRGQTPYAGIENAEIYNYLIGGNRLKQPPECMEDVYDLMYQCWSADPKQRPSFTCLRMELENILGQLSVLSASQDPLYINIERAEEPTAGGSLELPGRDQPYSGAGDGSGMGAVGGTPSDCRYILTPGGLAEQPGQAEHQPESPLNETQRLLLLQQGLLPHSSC
As to the kind of experiment: Enzymatic radiometric [Km ATP] KinaseProfiler LeadHunter assay, kinase: Rse, catalogue number: 14-535KP The assay has been performed by Eurofins Discovery. The note with it: ATP concentration 45.0 uM, Test compound concentration 10.0 uM.

The target in assay [9] is Serine/threonine-protein kinase PLK3 (Homo sapiens) (UniProt Q9H4B4). The assay is described as follows: Enzymatic radiometric [Km ATP] KinaseProfiler LeadHunter assay, kinase: Plk3, catalogue number: 14-572KP The assay has been performed by Eurofins Discovery. The note with it: ATP concentration 70.0 uM, Test compound concentration 10.0 uM.
The target of assay [10] is Serine/threonine-protein kinase PAK 2 (Homo sapiens) (UniProt Q13177). As to the kind of experiment: Enzymatic radiometric [Km ATP] KinaseProfiler LeadHunter assay, kinase: PAK2, catalogue number: 14-481KP The assay has been performed by Eurofins Discovery. Particulars: ATP concentration 90.0 uM, Test compound concentration 10.0 uM.
Sequence of Serine/threonine-protein kinase PAK 2 (Homo sapiens) (Q13177 whole entry): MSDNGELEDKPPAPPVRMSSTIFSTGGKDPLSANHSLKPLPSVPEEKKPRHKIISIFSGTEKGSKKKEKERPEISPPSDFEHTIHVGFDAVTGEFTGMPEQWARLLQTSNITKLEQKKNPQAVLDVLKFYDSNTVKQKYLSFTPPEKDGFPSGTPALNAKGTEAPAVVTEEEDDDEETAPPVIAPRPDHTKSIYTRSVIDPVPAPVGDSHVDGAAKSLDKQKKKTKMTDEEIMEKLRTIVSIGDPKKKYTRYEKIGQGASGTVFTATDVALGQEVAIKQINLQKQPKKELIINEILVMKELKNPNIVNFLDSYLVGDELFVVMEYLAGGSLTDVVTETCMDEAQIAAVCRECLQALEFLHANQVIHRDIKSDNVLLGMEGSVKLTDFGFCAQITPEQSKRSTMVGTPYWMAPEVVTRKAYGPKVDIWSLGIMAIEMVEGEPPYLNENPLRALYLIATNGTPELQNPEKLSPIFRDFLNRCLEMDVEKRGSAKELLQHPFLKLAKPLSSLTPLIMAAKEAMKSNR

Sequence of Protein kinase C theta type (Homo sapiens) (Q04759 whole entry, looked up): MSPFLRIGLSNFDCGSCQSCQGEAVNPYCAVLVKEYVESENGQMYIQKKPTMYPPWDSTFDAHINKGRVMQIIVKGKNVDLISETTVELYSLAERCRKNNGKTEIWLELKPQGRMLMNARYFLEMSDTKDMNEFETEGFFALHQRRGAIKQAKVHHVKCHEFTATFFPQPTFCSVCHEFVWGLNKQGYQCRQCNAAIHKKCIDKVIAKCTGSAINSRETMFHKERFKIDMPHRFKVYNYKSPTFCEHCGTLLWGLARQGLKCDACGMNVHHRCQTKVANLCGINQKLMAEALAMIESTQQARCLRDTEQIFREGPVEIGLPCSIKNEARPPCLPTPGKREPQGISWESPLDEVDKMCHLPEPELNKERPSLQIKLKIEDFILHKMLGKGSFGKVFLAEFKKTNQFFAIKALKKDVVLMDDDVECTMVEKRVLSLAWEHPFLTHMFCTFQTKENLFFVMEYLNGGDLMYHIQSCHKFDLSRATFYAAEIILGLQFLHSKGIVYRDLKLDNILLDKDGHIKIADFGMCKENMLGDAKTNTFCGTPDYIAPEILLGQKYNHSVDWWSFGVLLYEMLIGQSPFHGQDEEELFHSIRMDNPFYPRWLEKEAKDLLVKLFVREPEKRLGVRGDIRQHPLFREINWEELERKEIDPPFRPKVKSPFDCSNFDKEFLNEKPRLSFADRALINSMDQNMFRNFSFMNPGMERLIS
Sequence of Serine/threonine-protein kinase PLK3 (Homo sapiens) (Q9H4B4 whole entry, looked up): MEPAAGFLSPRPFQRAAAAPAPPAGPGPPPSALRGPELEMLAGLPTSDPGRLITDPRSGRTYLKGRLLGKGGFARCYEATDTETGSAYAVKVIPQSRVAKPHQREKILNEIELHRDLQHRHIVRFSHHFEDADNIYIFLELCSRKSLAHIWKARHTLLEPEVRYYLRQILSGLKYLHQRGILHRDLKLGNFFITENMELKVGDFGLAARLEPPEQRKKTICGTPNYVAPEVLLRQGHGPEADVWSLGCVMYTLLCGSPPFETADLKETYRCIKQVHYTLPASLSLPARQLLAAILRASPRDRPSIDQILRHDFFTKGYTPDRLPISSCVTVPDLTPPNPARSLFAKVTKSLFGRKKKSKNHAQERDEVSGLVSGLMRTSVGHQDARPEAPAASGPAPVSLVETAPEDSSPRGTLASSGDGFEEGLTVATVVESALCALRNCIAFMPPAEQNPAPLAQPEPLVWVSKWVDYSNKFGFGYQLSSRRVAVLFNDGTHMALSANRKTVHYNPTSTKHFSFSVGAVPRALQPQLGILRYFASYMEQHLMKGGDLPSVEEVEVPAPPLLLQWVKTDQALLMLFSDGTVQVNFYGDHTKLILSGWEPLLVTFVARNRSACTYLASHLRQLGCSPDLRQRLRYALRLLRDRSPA
Sequence of MAP kinase-activated protein kinase 2 (Homo sapiens) (P49137 whole entry, looked up): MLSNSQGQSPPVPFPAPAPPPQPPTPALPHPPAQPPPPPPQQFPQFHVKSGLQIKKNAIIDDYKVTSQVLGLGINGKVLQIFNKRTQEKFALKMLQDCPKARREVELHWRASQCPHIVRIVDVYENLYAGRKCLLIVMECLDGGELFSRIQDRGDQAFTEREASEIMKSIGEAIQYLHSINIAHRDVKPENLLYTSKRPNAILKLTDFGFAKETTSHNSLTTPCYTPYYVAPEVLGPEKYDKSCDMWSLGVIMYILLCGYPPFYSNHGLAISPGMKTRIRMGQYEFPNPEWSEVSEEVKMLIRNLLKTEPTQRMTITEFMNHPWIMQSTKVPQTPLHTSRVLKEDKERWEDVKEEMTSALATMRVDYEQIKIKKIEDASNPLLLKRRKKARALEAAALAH
Sequence of Casein kinase II subunit alpha' (Homo sapiens) (P19784 whole entry, looked up): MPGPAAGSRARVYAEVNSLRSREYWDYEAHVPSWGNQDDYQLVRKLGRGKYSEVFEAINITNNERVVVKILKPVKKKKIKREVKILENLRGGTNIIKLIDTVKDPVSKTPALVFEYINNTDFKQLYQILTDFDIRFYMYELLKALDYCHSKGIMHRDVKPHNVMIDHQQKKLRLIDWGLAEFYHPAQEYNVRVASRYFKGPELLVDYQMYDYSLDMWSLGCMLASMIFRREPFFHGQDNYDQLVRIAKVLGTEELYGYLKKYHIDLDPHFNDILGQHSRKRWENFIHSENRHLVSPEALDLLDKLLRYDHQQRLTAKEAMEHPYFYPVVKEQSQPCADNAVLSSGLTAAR
Sequence of Glycogen synthase kinase-3 beta (Homo sapiens) (P49841 whole entry, looked up): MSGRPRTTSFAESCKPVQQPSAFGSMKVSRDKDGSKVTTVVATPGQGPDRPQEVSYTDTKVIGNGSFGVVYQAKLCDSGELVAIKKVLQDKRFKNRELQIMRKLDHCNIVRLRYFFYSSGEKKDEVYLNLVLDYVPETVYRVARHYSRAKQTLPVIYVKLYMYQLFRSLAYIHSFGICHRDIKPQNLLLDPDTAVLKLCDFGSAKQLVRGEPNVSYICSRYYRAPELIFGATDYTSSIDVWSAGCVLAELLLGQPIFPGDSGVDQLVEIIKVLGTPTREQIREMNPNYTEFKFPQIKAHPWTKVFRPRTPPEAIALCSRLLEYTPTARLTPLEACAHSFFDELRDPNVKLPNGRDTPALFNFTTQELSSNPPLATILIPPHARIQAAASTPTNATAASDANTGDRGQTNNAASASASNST
Sequence of Ribosomal protein S6 kinase alpha-4 (Homo sapiens) (O75676 whole entry, looked up): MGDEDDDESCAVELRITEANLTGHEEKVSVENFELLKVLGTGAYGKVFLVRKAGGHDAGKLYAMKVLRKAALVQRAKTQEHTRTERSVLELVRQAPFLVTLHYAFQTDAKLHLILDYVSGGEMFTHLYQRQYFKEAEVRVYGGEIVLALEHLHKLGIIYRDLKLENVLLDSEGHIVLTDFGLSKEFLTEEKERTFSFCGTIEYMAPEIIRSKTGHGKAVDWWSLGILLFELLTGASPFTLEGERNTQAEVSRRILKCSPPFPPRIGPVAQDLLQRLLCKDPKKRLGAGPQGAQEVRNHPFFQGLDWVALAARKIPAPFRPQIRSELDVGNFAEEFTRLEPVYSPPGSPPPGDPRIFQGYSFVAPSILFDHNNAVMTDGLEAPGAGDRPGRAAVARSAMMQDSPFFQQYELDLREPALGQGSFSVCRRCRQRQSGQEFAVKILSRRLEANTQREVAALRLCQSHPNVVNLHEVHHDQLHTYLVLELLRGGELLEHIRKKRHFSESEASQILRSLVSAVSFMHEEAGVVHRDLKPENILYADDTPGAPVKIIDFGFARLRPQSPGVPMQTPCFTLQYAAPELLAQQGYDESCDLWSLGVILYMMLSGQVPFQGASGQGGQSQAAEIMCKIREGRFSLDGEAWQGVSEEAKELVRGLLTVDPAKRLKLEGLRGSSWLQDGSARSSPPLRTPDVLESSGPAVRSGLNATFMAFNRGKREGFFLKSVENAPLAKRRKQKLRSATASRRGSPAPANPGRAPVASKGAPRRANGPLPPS

Turning to `CC(C)[C@H](Nc1ncnc2[nH]c(-c3cnn(C)c3C#N)cc12)c1ccc2c(n1)OCCO2`, the Activity in [1] is 114%; in [2], 96%; in [3], 98%; in assay [4], 95%; in assay [5], 108%; in assay [6], 115%. Moreover, the Activity in [7] came out at 86%; in assay [8], 105%; in assay [9], 102%; in [10], 99%.

For the compound `CC(C)[C@H](Nc1ncnc2[nH]ccc12)c1ccc2c(c1)S(=O)(=O)CCC2`, the Activity in [1] stood at 92%; in assay [2] it was 88%; in assay [3], 94%; in assay [4], 87%; in assay [5], 93%; in assay [6], 106%. For the same compound, the Activity came out at 100% in [7], 86% in assay [8], 112% in [9] and 102% in assay [10].

Regarding `COc1ccc([C@H](Cc2nnn[nH]2)NC(=O)c2ncnc3[nH]ccc23)cc1`, the Activity in assay [1] stood at 103%; in assay [2], 91%; in [3], 90%; in assay [4], 93%; in assay [5] it was 96%; in assay [6], 102%. Also, the Activity is 97% in assay [7], 100% in assay [8], 102% in assay [9] and 107% in [10].

As for `Cn1ncc(-c2cc3c(N[C@@H](c4ccc5c(n4)OCCO5)C(C)(C)C)ncnc3[nH]2)c1C#N`, the Activity is 122% in assay [1]; 96% in assay [2]; 98% in assay [3]; 92% in assay [4]; 124% in assay [5]; 110% in assay [6]. Further, the Activity came out at 91% in assay [7], 110% in assay [8], 77% in [9] and 111% in [10].

Take `CC(C)[C@@H](Nc1ncnc2[nH]c(C(=O)N[C@@H]3CCN(C)C3)cc12)c1ccc2c(c1)S(=O)(=O)CCC2`: the Activity in assay [1] is 93%; in [2], 102%; in [3], 93%; in assay [4], 98%; in assay [5], 89%; in assay [6], 108%. Besides, the Activity came to 99% in [7], 107% in assay [8], 98% in assay [9] and 99% in assay [10].

As to `CNC(=O)Cn1cc(-c2cc3c(N[C@@H](c4ccc5c(c4)S(=O)(=O)CCC5)C(C)C)ncnc3[nH]2)cn1`, the Activity in assay [1] was found to be 92%; in assay [2], 91%; in [3] it was 98%; in [4] it was 88%; in [5] it was 94%; in assay [6], 111%. In addition, the Activity in assay [7] turned out to be 100%; in assay [8], 89%; in [9], 98%; in [10], 103%.

For `Cc1nn(C)cc1-c1cc2c(N[C@H](c3ccc4c(c3)S(=O)(=O)CCC4)C(C)C)ncnc2[nH]1`, the Activity in assay [1] amounted to 105%; in assay [2], 106%; in assay [3] it was 96%; in [4], 92%; in assay [5], 98%; in [6], 110%. Also, the Activity in assay [7] worked out at 105%; in assay [8], 96%; in assay [9], 104%; in [10] it was 100%.

Regarding `COc1ccc([C@@H](Cc2nnn[nH]2)NC(=O)c2ncnc3[nH]ccc23)cc1`, the Activity in assay [1] came out at 92%; in assay [2] it was 90%; in assay [3] it was 105%; in assay [4], 88%; in assay [5], 96%; in assay [6] it was 92%. Further, the Activity in assay [7] came out at 102%; in assay [8], 88%; in [9] it was 102%; in [10], 102%.

In the case of `CNCc1cc(-c2cc3c(N[C@@H](c4ccc5c(c4)S(=O)(=O)CCC5)C(C)C)ncnc3[nH]2)co1`, the Activity in [1] turned out to be 91%; in [2], 106%; in assay [3] it was 92%; in assay [4], 90%; in [5], 82%; in assay [6], 106%. For the same compound, the Activity in assay [7] came out at 92%; in assay [8], 81%; in assay [9] it was 124%; in assay [10], 94%.

Consider `CC(C)[C@@H](Nc1ncnc2[nH]ccc12)c1ccc2c(c1)S(=O)(=O)CCC2`, for which the Activity is 99% in [1]; 101% in assay [2]; 107% in [3]; 90% in assay [4]; 92% in assay [5]; 105% in [6]. Also, the Activity in assay [7] came out at 101%; in [8], 115%; in [9], 103%; in [10], 110%.

For the compound `C[C@H](C(=O)O)[C@@H](NC(=O)c1ncnc2[nH]ccc12)c1ccc(Br)cc1`, the Activity in assay [1] was determined as 90%; in [2], 100%; in [3] it was 93%; in assay [4], 91%; in assay [5], 85%; in [6] it was 98%. Moreover, the Activity in [7] was determined as 97%; in assay [8], 87%; in assay [9], 98%; in assay [10], 95%.

`CC(C)[C@@H](Nc1ncnc2[nH]c(-c3cnn(C)c3C#N)cc12)c1ccc2c(n1)OCCO2`: the Activity in assay [1] was 103% and 122%; in [2], 93% and 111%; in assay [3], 85% and 101%; in [4], 86% and 93%; in assay [5], 111% and 106%; in assay [6], 98% and 114%. Also, the Activity was 92% and 84% in assay [7]; 116% and 107% in assay [8]; 90% and 89% in assay [9]; 95% and 99% in assay [10].
